Reference: US20050215531A1, “Use of edg receptor binding agents in cancer” (priority 2002, published 2005)

What was measured:
Format in all cases: cell-based, human
[1] = system: ERK½ MAP kinases; assay: Western blot, activation of ERK½ MAP kinases in HUVEC; settings: HUVEC
Description: (§1) Human umbilical vein endothelial cells (HUVEC) are cultured at 37° C. and 5% CO2 in medium M199 supplemented with 20% SCS (HyClone, Logan, Utah), 1 U/ml heparin, 50 μg/ml ECGS, 2 mM glutamine, 100 U/ml penicillin and 0.1 mg/ml streptomycin. Cells are used for experiments up to passage number 5. Short-starved HUVEC are obtained by starving with 1% SCS-containing M199 for 5 h. Recombinant human VEGF165 is obtained from PromoCell (Heidelberg, Germany). Phospho-specific ERK½, p3B kinase polyclonal antibodies, nonphospho ERK½ antibodies and LumiGLO chemiluminescent reagent are from New England BioLabs (Beverly, Mass.), polyclonal IKB antibodies from Santa Cruz Biotechnology (Santa Cruz, Calif.). Peroxidase-conjugated donkey anti-rabbit immunoglobulin G (IgG) and sheep anti-mouse IgG are purchased from Amersham LIFE SCIENCE (Amersham Place, England). lmmobilon-P transfer membranes are products of Millipore (Bedford, Mass.). S is obtained from Sigma Chemical Co.; S1P is from Biomol. Compound A-phosphate stock solution is prepared by the following protocol. Compound A-phosphate is dissolved in methanol tracing with concentrated HCl (0.5 mg Compound A-phosphate in 500 μl of methanol plus 2 μl of HCl). Solvent from the resulting solution is evaporated under vacuum and the residue obtained is redissolved (variant 1) in 0.1% of defatted BSA solution in sterile deionized water (500 μl) or (variant 2) in 0.5% Triton X-100 in deionized water. The resulting stock solutions (2.5 mM) are sonicated and stored at 4° C.
After various treatments, the cells are washed twice with cold PBS, lysed in 100 μl of Laemmli buffer, scraped and heated for 5 min at 95° C. Total cell lysates are separated by SDS-PAGE and transferred to Immobilon-P membrane. The membrane is blocked for 30 minutes with PBS containing 0.1% Tween-20 and 3% skim milk and incubated for 1 hour at RT with a primary antibody diluted in blocking buffer. The membrane obtained is washed three times for 5 minutes with PBS containing 0.1% Tween-20 and incubated with peroxidase-conjugated secondary antibody for 1 hour at RT. After a washing step, the membrane is incubated for 1 minute with ECL reagent and exposed to film as required. For reprobing with another antibody, the membrane is washed twice in PBS, stripped for 30 min at 55° C. with stripping buffer (62.5 mM Tris-HCL, pH 6.8, 2% SDS, 100 mM 2-mercaptoethanol) and washed three times for 5 minutes with PBS at RT. The membrane is stored wet wrapped in SaranWrap at 4° C. after each immunodetection.
Signal transduction via MAP idnases plays a key role in a variety of endothelial cell functions. Treatment of HUVEC with Compound A-phosphate at 0.5 μM may result in transient activation of ERK½ with a peak of phosphorylation/activation at 10 minutes and returning to baseline by 20 minutes (see e.g. FIG. 5). No activation of p38 kinase and JNK½ by Compound A-phosphate is detectable in HUVEC. […] To estimate the possible role of inflammatory/NFκB-dependent program in Compound A-phosphatestimulated bioresponses of endothelial cells, the membranes are reprobed with anti-IκB antibodies. IκB levels are not affected by Compound A-phosphate treatment.

[2] = system: p38 kinase; assay: Western blot, p38 kinase activation in HUVEC
Description: as §1, with “Solvent from the resulting solution is evaporated under vacuum and the residue obtained is redissolved (variant 1) in 0.1% of defatted BSA solution in sterile deionized water (500 μl) or (variant 2) in 0.5% Triton X-100 in deionized water. The resulting stock solutions (2.5 mM) are sonicated and stored at 4° C.” left out

[3] = system: HUVEC; assay: In vitro angiogenesis (tube formation) assay on Matrigel
Description: as §1
Morphogenesis of endothelial cells into capillary-like structures on Growth Factor Reduced Matrigel Matrix (BD Bioscience) is performed according to the manufacture procedure. Briefly, HUVEC are trypsinized, resuspended in serum-free Ml 99 medium containing soybean trypsin inhibitor (1 mg/ml, Sigma). After centrifugation cells are resuspended in serum-free medium at a density 0.5×10^5 cells/ml, and cell suspension is seeded in 96-well cell culture plates (Costar, Corning Incorporated) precoated with 50 μl of Matrigel in the absence or presence of various stimuli: VEGF at 1.5 nM, S1P at 0.1-2 μM, S at 0.5-2 μM, Compound A at 0.5-2 μM, and Compound A-phosphate at 0.1-2 μM. Eight hours later, cells on Matrigel are fixed with 3% formaldehyde in PBS and kept at 4° C. Results are quantitated from images made with a Nikon Diaphot microscope equipped with a cooled CCD camera (Kappa GmbH, Gleichen, Germany) by direct counting of branching points on two microscopic fields from each well done in duplicates.
The effect of Compound A and Compound A-phosphate on morphogenic differentiation of endothelial cells is determined using an in vitro angiogenesis assay on Matrigel. Endothelial cell morphogenesis is a complex process that requires cell-extracellular matrix interactions, followed by matrix remodelling, stimulated migration, cell-cell interactions, and perivascular proteolysis. […] This may be interpreted as a possible involvement of EDG-1 (S1P1) receptor-mediated signaling events in Compound A-phosphate-stimulated bioresponses (see e.g. FIG. 3). […] Importantly, high concentrations of S and Compound A (2-5 μM) inhibited VEGF-triggered tube formation.

[4] = system: JNK½; assay: Western blot, JNK½ activation in HUVEC
Description: as §1, with “Solvent from the resulting solution is evaporated under vacuum and the residue obtained is redissolved (variant 1) in 0.1% of defatted BSA solution in sterile deionized water (500 μl) or (variant 2) in 0.5% Triton X-100 in deionized water. The resulting stock solutions (2.5 mM) are sonicated and stored at 4° C.” left out

[5] = system: IκB; assay: Western blot reprobed with anti-IκB antibodies (NFκB-dependent program); settings: endothelial cells
Description: as §1, with “Solvent from the resulting solution is evaporated under vacuum and the residue obtained is redissolved (variant 1) in 0.1% of defatted BSA solution in sterile deionized water (500 μl) or (variant 2) in 0.5% Triton X-100 in deionized water. The resulting stock solutions (2.5 mM) are sonicated and stored at 4° C.” left out

CCCCCCCCc1ccc(CCC(N)(CO)COP(=O)(O)O)cc1 (stereo not shown) [Compound A-phosphate]
time of ERK½ activation returning to baseline ([1]; 0.5 μM): ≤ 20 min
time of peak of ERK½ phosphorylation/activation ([1]; 0.5 μM, transient activation): 10 min
ERK½ activation, dose dependence ([1]; 0.5 versus 2 μM): dose-dependent manner, showing stronger activity at 2 μM
activation of p38 kinase [2]: No activation
tube formation potency at 2 μM versus 0.5 μM ([3]; 2 μM): less potent than at 0.5 μM
effect on VEGF-mediated remodelling ([3]; 0.5-1 μM, with VEGF): does not attenuate
concentration of maximal activity in capillary-like network formation ([3]; bell-shape dose-dependence, tested 0.1-2 μM, 8 h): around 0.5 μM
number of branching points per microscopic field (induction potency) ([3]; compared with S1P and VEGF): comparable for Compound A-phosphate and S1P
activation of JNK½ [4]: No activation
IκB levels [5]: not affected
